Entries after “also recorded” stand apart in the source; their conditions may differ.
Assays:
[1] = system: CTC lines (BRx42, BRx50 and BRx68) spiked into healthy donors' blood; assay: Spike-in experiment: growth of CTCs isolated from spiked healthy donors' blood; format: cell-based, human; conditions: RosetteSep isolated, cultured 20 days
Method: Spike-in experiment. Healthy volunteers' blood samples were collected. GFP-positive CTC lines (50 cells/mL) were spiked into the blood samples from healthy volunteers, and RosetteSep™ CTC Enrichment Cocktail Containing […] was used to enrich CTCs from spiked-in samples. Isolated CTCs were cultured in GravityTRAP™ ULA Plate 96 wells. Each patient CTC cell line was processed by 2 different researchers.
Validation on spiked-in CTCs. To mimic the CTC isolation procedure, spiked-in experiments were performed with 3 CTC lines (BRx42, BRx50 and BRx68) into healthy donors' blood. The RosettSep CTC isolation method was used to isolate the spiked CTCs, and separated isolated CTCs equally into wells with control media or with NAC or NAC plus P1C2. […] This confirmed the effects of these compounds on expanding CTCs that have been processed through an isolation procedure. NAC single cell clones form tumors with similar kinetics as controls. It was noticed that the most critical phase is the initial expansion from single CTCs. […] Therefore, treatment of these compounds was stopped at 24 days, and then prolonged the culture to generate several single cell clones. To evaluate the tumorigenicity of the single cell clones, GFP-Luciferase tagged BRx68 single clones generated with NAC treatment or control clones were injected into the mammary fat pats of female NSG mice.

[2] = system: GFP-Luciferase tagged BRx68 single clones; assay: Xenograft assay of single cell clones generated with or without NAC; format: in vivo; conditions: clones generated with 300 μM NAC for 24 days vs control clones; mammary fat pad of female NSG mice
Method: Single CTC clones. NAC clones were generated by treating single CTCs with 300 μM NAC media for 24 days before switching to regular CTC media. Control single clone lines were established in the same batch using regular CTC media.
Xenograft assay and Hematoxyline & Eosin staining. Six-week old female NSG mice (Jackson Laboratory) were anesthetized with isoflurane and 20,000 GFP/luc-positive single clone cells in 100 μL of 1:1 PBS and Corning® Matrigel® Matrix (phenol-red free) were injected into the fourth mammary fat pad. To evaluate the growth of primary tumors, mice were intraperitoneally injected with 150 μL of d-Luciferin substrate at 30 mg/mL (Sid Labs), and imaged within 15 minutes. Signals from luciferase-tagged cells were monitored at day 0 after injection and weekly by in vivo imaging using IVIS Lumina II (Perkin Elmer) for 5 weeks. Mice were sacrificed after 8 weeks, and their organs were dissected and imaged. Primary tumors and organs were collected and fixed with 10% formalin overnight and sectioned for 5 μm thickness. H&E staining was performed using Varistain Gemini ES Automated Slide Stainer in USC's Histology Laboratory (HIST). Images were taken with a 20× objective in Keyence (BZ-II Analyser, Keyence).
Validation on spiked-in CTCs. To mimic the CTC isolation procedure, spiked-in experiments were performed with 3 CTC lines (BRx42, BRx50 and BRx68) into healthy donors' blood. […]

SMILES: CC(=O)N[C@@H](CS)C(=O)O [NAC, N-acetyl-L-cysteine]
- growth of isolated CTCs compared to the control condition [1]: promote growth of small numbers of CTCs; also recorded: significantly increased
- tumorigenicity of single cell clones (tumor growth kinetics and histology) [2]: dose not change the tumorigenicity; also recorded: did not significantly affect

From US20230184743A1, “SCREENING METHODS TO IDENTIFY SMALL MOLECULE COMPOUNDS THAT PROMOTE OR INHIBIT THE GROWTH OF CIRCULATING TUMOR CELLS, AND USES THEREOF” (University of Southern California, priority 2020, published 2023)
